This is an account of results in US11103548B2, “Treatment of endometriosis, angiogenesis and/or endometrial lesion growth” (priority 2013, dated 2021).

No end group written: not given here. *: point of attachment. FITC = O=C1OC2(c3ccc(O)cc3Oc3cc(O)ccc32)c2ccc(NC(=S)*)cc21 Bounds are passed on as bounds.

The test system of one series is fertility of the animals. In words: fertility by mating in humanized animal models of endometriosis after treatment. In kind it is in vivo. As to conditions: mating after endometriosis is inhibited and treatment is stopped. Here is the method:
The ability of ST011 to inhibit endometriosis without effecting fertility can be confirmed in, for example, animal model of endometriosis. For these experiments, humanized animal models of endometriosis first can be treated with ST011 and once endometriosis is inhibited and treatment is stopped, fertility of the animals is tested by mating.

The test system of another series is CRL 7566 cells. In words: intracellular permeability by fluorescent microscopy. As to conditions: 20 micro molar FITC tagged peptide, after 6 hours. In kind it is cell-based. The method, then:
To further examine the utility of the ST011 peptide as a therapeutic tool against angiogenesis, endometriosis and/or endometrial lesion growth, this peptide was further examined to observe its intracellular permeability in endometrial cells. For these experiments, GYGRKKRRQRRR (TAT) tagged GNSALHVASQHG (ST011) (SEQ ID NO: 10) and a control peptide GYGRKKRRQRRR (TAT CTL; SEQ ID NO: 11) were chemically synthesized. Each peptide contained FITC on its N-terminal end. These peptides were dissolved in 2% DMSO in PBS (pH 7.3) and applied directly on the Petri dish containing model cells (CRL 7566 or HUVECs) at required concentrations. Active internalization of peptide was observed using fluorescent microscopy. Three independent experiments were performed with duplicates of each condition. Model cell line for endometriosis, CRL 7566 cells (FIG. 2) received 20 micro molar FITC tagged TAT-ST011. After 6 hours cells were examined under fluorescent microscope.

The test system of series [1] is HUVECs. Description: in vitro angiogenic tube formation on gel matrix. Format: cell-based. The method, then:
Next, effect of TAT-ST011 peptide GNSALHVASQHG (SEQ ID NO: 2) on angiogenesis and tube formation of HUVEC cell was evaluated.
Extracellular matrix gel solution (Cell biolabs inc, San Diego, Calif., USA) had been thawed overnight at 4° C. and approximately […] of ECM gel solution was added to each well of a 96 well plate. The plate was incubated at 37° C. for 1 hour. HUVECs were trypsinized from culture and approximately 20,000 cells were added per well to the ECM containing 96 well plate. Each well was treated with […] of TAT-P12 at a concentration of 600 ng/mL, 300 ng/mL, 150 ng/mL, 5 ng/mL or 2.5 ng/mL. PBS was used as a control. The tube formation was visualized using a spinning disc confocal microscope and the images were stacked together using ImageJ.

The subject of series [2] is HUVECs. Description: WST-1 proliferation assay. As to conditions: 600 ng/mL to 2.5 ng/mL, 48 hours of treatment, PBS control. Format: cell-based. The method, then: Endothelial cells are an integral part of blood vessels and the proliferation of endothelial cells is extremely important for angiogenesis. Therefore, to assess the role of α-synuclein in endothelial cell proliferation, HUVECs were plated and treated with various concentrations of TATST011 peptide GNSALHVASQHG (SEQ ID NO: 2) ranging from 600 ng/mL to 2.5 ng/mL using PBS as a control. In order to measure the effect of TAT-ST011 peptide GNSALHVASQHG (SEQ ID NO: 2) on HUVEC proliferation a WST-1 proliferation assay was performed.
HUVECs and epithelial cells were trypsinized, suspended in cultured medium and counted. Approximately 10,000 cells per well were seeded onto a 96 well plate. After allowing 24 hours for attachment in 37° C., the cells were treated with either 600 ng/mL, 300 ng/mL, 150 ng/mL, 5 ng/mL or 2.5 ng/mL of TAT-P12 using phosphate buffer saline (PBS, (Sigma Chemical Co., St. Louis, Mo., USA) as a control. The drug was suspended in RPMI. The plates were incubated in 37° C. for 24 or 48 hours after which 10 μL of WST-1 (Roche, Laval, QC, Canada) was added to each well. The plate was then incubated in 37° C. for another 4 hours. The absorbance of the wells was measured at a wavelength of 490 nm or at 510 nm.

A further series addresses T1, SNCG (Homo sapiens, UniProt O76070).
T1 construct: expressed in transfected cells; host or cells: MCF7-SNCG cells
In words: co-immunoprecipitation (co-IP) of peptide with SNCG in MCF7-SNCG cells. Format: binding. As to conditions: FITC tagged peptide, 8 hour after treatment, IP with anti-SNCG antibody, western blot with anti-FITC antibody. The method, then:
In vivo binding of ST011 to SNCG was examined in co-immunoprecipitation (co-IP) experiments (See FIG. 1). MCF7-SNCG cells were treated with FITC tagged […] (TAT)-ST011 (SEQ ID NO: 10) (lane 1 of FIG. 1), or FITC tagged YGRKKRRQRRR (TAT) alone (SEQ ID NO: 11) (lane 2 of FIG. 1) or no treatment control (lane 3 of FIG. 1). 8 hour after treatment, cell lysates were prepared and IP with anti-SNCG antibody was conducted. The presence of TAT-ST011 in SNCG IP complexes obtained from different treated cells was detected by western blot using anti-FITC antibody. […] Thus, FIG. 1 provides further evidence that SNCG is capable of immunoprecipitating TAT-ST011.

In series [3] the test system is human endometriotic lesions. Description: mouse xenograft model of endometriosis, gross observation of lesion growth and vascularization. Format: in vivo, mice. The settings on record: 20 mg/kg daily intraperitoneal for 21 days, necropsy one week after treatment, versus saline.
Experimental: Gross observation of endometriotic lesion growth and vascularization in vivo was performed using an animal model. […] The peritoneal cavity of the mice was exposed using surgical tools and the endometriotic lesions were located manually.
A mouse xenograft model was developed using Rag2^−/−/I12rg^−/− double knockout mice on a BalbC background.
Since human estrogen is important for the growth of human endometriotic lesions the mice (n=12) had 60-day release 13-estradiol 17-acetate pellets (15 mg/pellet) (Innovative Research of America, Sarasota, Fla., USA) subcutaneously implanted. The mice were anaesthetized with isofluorane (Pharmaceutical Partners of Canada, Richmond Hill, ON, Canada).
Five days after the implantation of the estrogen 5 pellet, eutopic endometrium obtained from hysterectomy and endometrial biopsies performed at Kingston General Hospital was implanted in the peritoneal cavity of the mice. The obtained endometrium was cut into equal pieces and washed with PBS. The pieces of endometrium were kept in PBS on ice until the surgeries were performed. The mice were anaesthetized in an isofluorane chamber and a small incision was made in their abdomen. Two to three lesions were adhered on the left side of the peritoneal cavity using Vetbond tissue adhesive (3M, St. Paul, Minn., USA) and one or two pieces were dropped freely in the cavity. […]

T1 sequence (O76070 whole entry): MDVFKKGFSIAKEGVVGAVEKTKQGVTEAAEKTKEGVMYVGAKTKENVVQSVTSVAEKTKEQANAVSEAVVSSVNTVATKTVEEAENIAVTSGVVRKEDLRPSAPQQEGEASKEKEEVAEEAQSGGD

Consider “Ac-GNSALHVASQHG-NH2 [ST011 peptide, GNSALHVASQHG]”, for which the “effect on fertility of the animals” value in the series on fertility of the animals is “no effect of ST011 peptide on the fertility”.
As to “GYGRKKRRQRRR (TAT) tagged GNSALHVASQHG (ST011) [TAT-ST011]”, the “internalization of peptide into endometrial cells” value in the series on CRL 7566 cells is listed as “capable of going inside endometrial cells”. Further, the “morphology of the HUVECs (cell lysis)” value with HUVECs [1] (300 ng/mL and 600 ng/mL) is “caused the cells to lyse”. The “concentration that inhibited tube formation and also changed the morphology of the HUVECs” value in the series with HUVECs [1] (HUVECs on gel matrix) was at least 5 ng/mL. For the same substance, the “tube formation / branching of HUVECs” value in the series on HUVECs [1] (various concentrations (600 to 2.5 ng/mL), confocal microscopy) is listed as “dose dependent inhibition of tube formation”. For the same substance, the “proliferation of HUVECs” value in the series with HUVECs [2] is on record as “dose dependently decreased the proliferation of HUVECs”. Besides, on SNCG, the “co-precipitation with SNCG (binding to SNCG)” value was “co-precipitate with SNCG”. In series [3], the endometriotic lesion growth entry is “inhibited growth of lesion” and the “vascularization of the lesions” value is reported as “prevented the formation of blood vessels to the lesions”.
“GYGRKKRRQRRR ({FITC}-GYGRKKRRQRRR) [TAT alone, control peptide … (TAT CTL, reference compound]”: the “co-precipitation with SNCG (binding to SNCG)” value with SNCG was “not TAT alone is found to co-precipitate with SNCG”.
